The values that follow come from paper PMC12125420, “Yinling Qushi Granule as a therapeutic agent for metabolic syndrome: pharmacological, molecular targets, and pharmacokinetic insights” (Advanced Biotechnology, 2025).

One data set in a line: in vivo. The note with it: male, Sprague-Dawley, rat, po, 36.99 g/kg.
Experimental: (§1) SPF grade Sprague–Dawley rats (n = 6, male, 8–10-week-old, 300 ± 20 g) were obtained from the Guangdong Medical Laboratory Animal Center (Guangzhou, China, Certificate No. SCXK 2022–0002), maintained in environmental conditions with a temperature of 20–25 °C, humidity of 55 ± 15%, and a 12-h light/dark cycle. Animals were acclimated for 7 days prior to drug administration. The experimental procedures and protocols have been approved by the Animal Ethics Committee of the School of Life Sciences, Sun Yat-sen University (Ethics approval No. SYSU-lS-IACUC- 2024–0130, Guangzhou, China), with every effort being made to minimize the suffering of the animals.
(§2) In order to investigate the absorbable components in vivo, Yinling Qushi (YLQS) extract was prepared as follows: 77.76 g of Poria cocos (Schw.) Wolf (Fuling, FL), 29.16 g of Atractylodes macrocephala Koidz. (Baizhu, BZ), 12.96 g of Zingiber officinale Rosc. (Ganjiang, GJ), 19.44 g of Polyporus umbellatus (Pers.) Fries (Zhuling, ZL), 19.44 g of Cinnamomum cassia Presl (Guizhi, GZ), 24.30 g Artemisia capillaris Thunb. (Yinchen, YC), 19.44 g Glehnia littoralis Fr.Schmidt ex Miq. (Beishashen, BSS) and 19.44 g of Glycyrrhiza uralensis Fisch. (Gancao, GC) were weighted. The weighted herbs were mixed thoroughly and extracted with 750 mL boiling water for 1 h, twice. The aqueous extracts were combined, filtered, and concentrated by rotary evaporation to a total volume of 12 mL, with a final extraction yield of 18.5 g crude herbal materials per 1 mL of Yinling Qushi (YLQS) extract.
(§3) SD Rats were fasted for 12 h, followed by orally administrated with Yinling Qushi (YLQS) extract at a dose of 36.99 g/kg (6.7 mL/kg). 200 μL of venous blood was collected at 0 min, 15 min, 30 min, 1 h, 2 h, 4 h, 6 h, 8 h, 10 h, 12 h, and 24 h post-gavage. Serum samples were freshly prepared by centrifugation (3,000 g, 20 min, 4 ℃), supernatant collection and storage at − 80 ℃ till analysis.
(§4) For serum extraction, 90 μL serum of indicated time points were pre-mixed with 10 μL IS working solution (myristic acid-D27, 10 μg/mL in methanol). 1 mL ethyl acetate was added to 100 μL premixed serum, vortexed vigorously for 5 min, and centrifuged (10,000 g, 15 min, 4 ℃) for protein precipitation. 700 μL of supernatant was transferred and evaporated to dryness under nitrogen flow. Prior to assay, samples were re-suspended with 100 μL methanol: distill water solution (4:1, v/v), sonicated and vortex-mixing for dissolve completely, and centrifuged (10,000 g, 20 min, 4 ℃). 10 μL of supernatant was analyzed using a connected system of AQUITY UPLC (Waters Corp., Milford, MA, USA) hybrid ZenoTOF 7600-MS/MS system (AB Sciex, Framingham, MA, USA) with electrospray ionization (ESI) source.
(§5) A reversed-phase Kinetex C18 column (2.1 × 100 mm, 2.6 μm, Phenomenex, CA, USA) was used, with 0.3 mL/min flow rate at 40 ℃. The mobile phase consisted of an aqueous solvent A (0.1% formic acid, v/v) and organic solvent B (acetonitrile with 0.1% formic acid, v/v). The elution gradient was as follows: 5–30% B (0–20 min); 30–95% B (20–27 min), maintained at 95% B (27–32 min); 95–5% B (32–33 min); and 5% B (33–38 min) to equilibrate the system.
(§6) The instrumental parameters of mass spectrometry were as follows: ion source gas 1 and gas 2 were both 55 psi, curtain gas was 35 psi, the CAD gas was 8 psi, and the ion source temperature was 550 °C. The ion spray voltage floating (ISVF) was set to 5500 V for positive mode and − 4500 V for negative mode. The collision energy (CE) and collision energy spread (CES) were set to 35 V and 15 eV, and declustering potential was 80 V. The mass-to-charge ratio (m/z) range was set to 50–1500 Da, with an accumulation time of 0.15 s. Data were collected by SCIEX OS software (version 3.3.0.12027, AB Sciex, Framingham, MA, USA) in information-dependent acquisition (IDA) mode.
For orientation: AUC(0-inf) means the area under the concentration-time curve extrapolated to infinity. Higher therefore signals more exposure. The AUC(0-t) is exposure summed from dosing to a finite time, without extrapolation to infinity. As usually defined, the Cmax is the highest concentration seen after dosing. As a reminder, the Tmax is the time at which the peak concentration occurs. In general, half-life refers to the time in which the quantity being followed falls by half. Low values mean fast loss, high ones slow loss. Regarding `CC(C)=CC1CC(C2CCC3(C)C4=CCC5C(C)(CCC(O)C5(C)C)C4=CCC23C)C(=O)O1` (stereo not drawn) [Porilactone A], the AUC(0-inf) amounted to 9200 ± 744 ng·h/mL, the AUC(0-t) was 9460 ± 501 ng·h/mL, the Cmax came to 846 ± 31.9 ng/mL and the Tmax was determined as 6.5 ± 1.89 h. Further, the half-life is 2.15 ± 0.24 h.
In the case of `CC(C)C(=O)CCC(C(=O)O)C1C(O)CC2(C)C3=C(CCC12C)C1(C)CCC(O)C(C)(C)C1CC3` (stereo not drawn) [Daedaleanic acid B], the AUC(0-inf) amounted to 170 ± 27.6 ng·h/mL, the AUC(0-t) turned out to be 129 ± 32.5 ng·h/mL, the Cmax amounted to 20.6 ± 0.8 ng/mL and the Tmax was found to be 1.35 ± 0.68 h. In addition, the half-life was 3.84 ± 0.75 h.
For `CC(C)=CCCC(C(=O)O)C1C(O)CC2(C)C3=CCC4C(C)(CCC(O)C4(C)C)C3=CCC12C` (stereo not drawn) [16alpha-Hydroxydehydrotrametenolic acid], in that order: 136000 ng·h/mL, 136000 ng·h/mL, 16800 ng/mL, 4.4 ± 0.75 h and 1.78 ± 0.09 h.
Turning to `CC(=CCCC(C(=O)O)C1C(O)CC2(C)C3=CCC4C(C)(CCC(O)C4(C)C)C3=CCC12C)CO` (stereo not drawn) [Dihydroxydehydrotrametenoic acid], the AUC(0-inf) amounted to 3270 ± 142 ng·h/mL, the AUC(0-t) is 3030 ± 356 ng·h/mL, the Cmax amounted to 308 ± 35.6 ng/mL and the Tmax stood at 4.4 ± 0.75 h. In addition, the half-life is 4.98 ± 1.07 h.

Assay in the next data set: not given
The note with it: rat, in vivo.
Take `CC(C)=CC1CC(C2CCC3(C)C4=CCC5C(C)(CCC(O)C5(C)C)C4=CCC23C)C(=O)O1` (stereo not drawn) [Porilactone A]: the “Absorption pattern of serum concentration-time curve” value is given as “double-peak absorption pattern”.

A short description of a further data set: Pharmacokinetics of absorbed triterpenoid prototypes in rat serum after oral YLQS extract. The conditions noted are these: male, Sprague-Dawley, 36.99 g/kg.
Experimental: as §1, §2, §3, §4, §5, §6
`C=C(C)C1CC=C2C(=CCC3(C)C(C(CCC=C(C)CO)C(=O)O)C(O)CC23C)C1(C)CCC(=O)O` (stereo not drawn) [Poricoic acid E]: the area under the curve AUC(0-inf) stood at 223 ± 30.6 ng·h/mL, the AUC(0-t) was determined as 205 ± 25.1 ng·h/mL, the Cmax is 16 ± 2.7 ng/mL and the Tmax was determined as 8.5 ± 1.5 h. This compound also had a half-life of 6.64 ± 0.75 h.
Regarding `C=C(C)[C@@H]1CC=C2C(=CC[C@]3(C)[C@@H]([C@@H](CCC(=C)C(C)(C)O)C(=O)O)[C@H](O)C[C@@]23C)[C@@]1(C)CCC(=O)OC` [Poricoic acid DM], the total exposure AUC(0-inf) was found to be 105 ± 13.6 ng·h/mL, the AUC(0-t) was 77.1 ± 12.4 ng·h/mL, the peak level (Cmax) was 13.2 ± 2 ng/mL and the Tmax was found to be 4 ± 1.41 h. Further, the half-life was 4.61 ± 1.21 h.
Take `C=C(C)[C@@H]1CC=C2C(=CC[C@]3(C)[C@@H]([C@@H](CCC=C(C)C)C(=O)O)[C@H](O)C[C@@]23C)[C@@]1(C)CCC(=O)O` [Poricoic acid B]: the total exposure AUC(0-inf) came out at 2290 ± 621 ng·h/mL, the exposure AUC(0-t) stood at 2710 ± 417 ng·h/mL, the Cmax was 214 ± 53.8 ng/mL and the Tmax was 5.5 ± 0.96 h. The same compound showed a half-life of 4.11 ± 0.82 h.
For `C=C(C)C1CC=C2C(=CCC3(C)C(C(CCC=C(C)C)C(=O)O)CCC23C)C1(C)CCC(=O)O` (stereo not drawn) [16-Deoxyporicoic acid B], in that order: 2540 ± 264 ng·h/mL, 1970 ± 280 ng·h/mL, 290 ± 44.5 ng/mL, 5.6 ± 0.75 h and 4.95 ± 0.81 h.
For `C=C(C)C1CC=C2C(=CCC3(C)C(C(CCC(=C)C(C)(C)O)C(=O)O)C(O)CC23C)C1(C)CCC(=O)O` (stereo not drawn) [Poricoic acid D], the area under the curve AUC(0-inf) turned out to be 82 ± 5.1 ng·h/mL, the area under the curve AUC(0-t) came to 68 ± 10.1 ng·h/mL, the highest concentration (Cmax) was 7.5 ± 1.3 ng/mL and the Tmax is 6.4 ± 1.72 h. In addition, the half-life was 5.51 ± 0.88 h.
As for `C=C(C)[C@@H]1CCC2=C(CC[C@]3(C)[C@@H]([C@@H](CCC=C(C)C)C(=O)O)[C@H](O)C[C@@]23C)[C@@]1(C)CCC(=O)O` [Poricoic acid G], the AUC(0-inf) turned out to be 4420 ± 367 ng·h/mL, the area under the curve AUC(0-t) stood at 4090 ± 442 ng·h/mL, the highest concentration (Cmax) is 470 ± 89.2 ng/mL and the time of peak concentration (Tmax) turned out to be 5.5 ± 0.96 h. The half-life was 3.5 ± 1.08 h.
